Results as given in ChEMBL document CHEMBL1140006, “2-Cycloalkyl phenoxyacetic acid CRTh2 receptor antagonists” (Bioorg Med Chem Lett, 2007).
pIC50, pKi: −log10 of the molar value. Activity calls are given as the source filed them. The rule behind the calls is not given here.

Key:
[1] = target: T1, Prostaglandin D2 receptor (Homo sapiens, UniProt Q13258); assay: Binding affinity at prostanoid DP receptor
T1 sequence (Q13258 whole entry): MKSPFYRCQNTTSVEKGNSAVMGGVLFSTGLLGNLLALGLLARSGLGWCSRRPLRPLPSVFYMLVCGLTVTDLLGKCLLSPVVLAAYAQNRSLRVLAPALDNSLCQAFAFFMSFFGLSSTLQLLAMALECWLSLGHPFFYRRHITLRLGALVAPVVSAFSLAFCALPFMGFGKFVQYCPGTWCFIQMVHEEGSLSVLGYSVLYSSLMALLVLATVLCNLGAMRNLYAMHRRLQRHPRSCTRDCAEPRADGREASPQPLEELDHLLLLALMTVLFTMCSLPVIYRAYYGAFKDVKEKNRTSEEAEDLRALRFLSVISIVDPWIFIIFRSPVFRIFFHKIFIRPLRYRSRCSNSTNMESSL

[2] = target: T2, Prostaglandin D2 receptor 2 (Homo sapiens, UniProt Q9Y5Y4); assay: Displacement of […] from human CRTh2 receptor expressed in CHO cells; assay type: cell-based
T2 sequence (Q9Y5Y4 whole entry): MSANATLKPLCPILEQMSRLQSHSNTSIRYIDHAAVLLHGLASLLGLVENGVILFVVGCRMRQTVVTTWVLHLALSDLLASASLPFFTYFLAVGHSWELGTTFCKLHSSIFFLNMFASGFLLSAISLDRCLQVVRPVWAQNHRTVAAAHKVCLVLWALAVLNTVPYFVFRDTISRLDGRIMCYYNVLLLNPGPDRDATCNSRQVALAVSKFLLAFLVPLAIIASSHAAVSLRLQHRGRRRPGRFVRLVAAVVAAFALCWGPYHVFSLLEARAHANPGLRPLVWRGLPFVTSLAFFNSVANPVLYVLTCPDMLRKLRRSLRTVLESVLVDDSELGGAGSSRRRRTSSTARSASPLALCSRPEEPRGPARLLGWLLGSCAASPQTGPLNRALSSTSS

Eosinophil [3] = assay: Inhibition of 13,14-dihydro-15-ketoprostaglandin D2-stimulated human eosinophils shape change; assay type: functional, cell-based
[4] = target: Prostaglandin E2 receptor EP2 subtype (Homo sapiens, UniProt P43116); assay: Binding affinity at prostanoid EP2 receptor
Thromboxane A2 receptor = target: T3, Thromboxane A2 receptor (Homo sapiens, UniProt P21731); assay: Binding affinity at prostanoid TP receptor
T3 sequence (P21731 whole entry): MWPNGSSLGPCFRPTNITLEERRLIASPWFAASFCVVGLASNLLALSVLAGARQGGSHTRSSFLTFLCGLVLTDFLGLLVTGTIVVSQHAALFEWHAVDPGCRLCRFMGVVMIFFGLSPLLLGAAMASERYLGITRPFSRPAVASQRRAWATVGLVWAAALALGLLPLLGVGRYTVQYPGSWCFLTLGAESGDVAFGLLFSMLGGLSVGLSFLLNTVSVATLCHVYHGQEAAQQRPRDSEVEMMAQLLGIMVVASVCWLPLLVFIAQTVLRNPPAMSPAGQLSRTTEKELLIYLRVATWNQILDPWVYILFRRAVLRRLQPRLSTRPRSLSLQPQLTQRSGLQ

[5] = Intrinsic clearance in human microsomes; assay type: ADME, Microsome
[6] = Permeability from apical to basolateral side of Caco-2 cell membrane; assay type: ADME, cell-based; details: human, read-out: permeability
Cytochrome P450 3A4 = Cytochrome P450 3A4 (Homo sapiens, UniProt P08684); assay: Inhibition of CYP3A4; assay type: ADME
[7] = Half life in rat at 0.5 mg/kg, iv; assay type: ADME, organism-based; design: dose 0.5 mg/kg, route intravenous; details: in vivo
[8] = Cmax in rat; assay type: ADME, organism-based; details: in vivo
Eosinophil [9] = assay: Inhibition of 13,14-dihydro-15-ketoprostaglandin D2-stimulated human eosinophils shape change upto 10 uM; assay type: functional, cell-based
Cytochrome P450 2C19 = Cytochrome P450 2C19 (Homo sapiens, UniProt P33261); assay: Inhibition of CYP2C19; assay type: ADME
[10] = Permeability from basolateral to apical side of Caco-2 cell membrane; assay type: ADME, cell-based; details: human, read-out: permeability
[11] = Clearance in rat; assay type: ADME, organism-based; details: in vivo
Cytochrome P450 2D6 = Cytochrome P450 2D6 (Homo sapiens, UniProt P10635); assay: Inhibition of CYP2D6; assay type: ADME
[12] = Volume of distribution at steady state in rat; assay type: ADME, organism-based; details: in vivo, read-out: Vdss
[13] = Oral bioavailability in rat at 2 mg/kg; assay type: ADME, organism-based; details: in vivo
Cytochrome P450 1A2 = target: T4, Cytochrome P450 1A2 (Homo sapiens, UniProt P05177); assay: Inhibition of CYP1A2; assay type: ADME
T4 sequence (P05177 whole entry): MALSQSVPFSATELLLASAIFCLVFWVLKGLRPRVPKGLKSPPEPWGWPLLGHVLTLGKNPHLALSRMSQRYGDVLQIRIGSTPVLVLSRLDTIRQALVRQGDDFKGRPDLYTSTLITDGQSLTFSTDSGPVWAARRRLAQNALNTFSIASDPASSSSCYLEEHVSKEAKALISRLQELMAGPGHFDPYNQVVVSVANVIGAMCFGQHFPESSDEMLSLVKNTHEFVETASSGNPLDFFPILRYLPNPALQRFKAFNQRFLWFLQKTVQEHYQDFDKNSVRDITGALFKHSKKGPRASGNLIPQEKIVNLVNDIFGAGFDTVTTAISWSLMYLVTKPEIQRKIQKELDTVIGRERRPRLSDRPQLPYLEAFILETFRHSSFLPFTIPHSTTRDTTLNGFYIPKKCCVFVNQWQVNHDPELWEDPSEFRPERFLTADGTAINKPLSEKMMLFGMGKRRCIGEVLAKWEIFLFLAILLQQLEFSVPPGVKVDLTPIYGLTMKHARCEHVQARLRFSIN

[14] = Intrinsic clearance in rat microsomes; assay type: ADME, Microsome
Cytochrome P450 2C9 = Cytochrome P450 2C9 (Homo sapiens, UniProt P11712); assay: Inhibition of CYP2C9; assay type: ADME
[15] = AUCall in rat; assay type: ADME, organism-based; details: plasma

Sequence of Prostaglandin E2 receptor EP2 subtype (P43116 whole entry): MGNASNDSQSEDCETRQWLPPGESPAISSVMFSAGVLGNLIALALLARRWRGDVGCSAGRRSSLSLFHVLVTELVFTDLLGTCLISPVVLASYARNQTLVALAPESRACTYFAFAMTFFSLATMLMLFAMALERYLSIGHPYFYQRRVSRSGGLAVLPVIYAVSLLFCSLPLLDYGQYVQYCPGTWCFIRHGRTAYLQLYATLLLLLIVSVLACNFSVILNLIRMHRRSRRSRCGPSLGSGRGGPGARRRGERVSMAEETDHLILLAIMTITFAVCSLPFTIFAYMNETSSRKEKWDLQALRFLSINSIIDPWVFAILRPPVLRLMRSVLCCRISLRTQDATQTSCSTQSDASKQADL
Sequence of Cytochrome P450 2D6 (P10635 whole entry): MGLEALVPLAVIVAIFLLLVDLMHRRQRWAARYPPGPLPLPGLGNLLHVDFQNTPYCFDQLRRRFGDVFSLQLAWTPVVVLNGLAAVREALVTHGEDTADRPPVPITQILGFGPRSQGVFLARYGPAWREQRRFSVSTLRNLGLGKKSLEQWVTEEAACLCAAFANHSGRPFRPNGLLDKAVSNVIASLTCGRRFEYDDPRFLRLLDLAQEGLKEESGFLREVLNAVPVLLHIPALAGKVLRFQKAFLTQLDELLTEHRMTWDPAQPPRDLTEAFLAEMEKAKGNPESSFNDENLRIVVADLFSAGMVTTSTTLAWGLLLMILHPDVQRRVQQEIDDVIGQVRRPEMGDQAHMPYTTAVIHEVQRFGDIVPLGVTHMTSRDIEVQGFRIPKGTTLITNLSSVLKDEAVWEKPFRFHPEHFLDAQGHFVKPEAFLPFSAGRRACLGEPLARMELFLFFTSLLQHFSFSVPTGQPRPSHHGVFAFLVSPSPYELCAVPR
Sequence of Cytochrome P450 2C19 (P33261 whole entry): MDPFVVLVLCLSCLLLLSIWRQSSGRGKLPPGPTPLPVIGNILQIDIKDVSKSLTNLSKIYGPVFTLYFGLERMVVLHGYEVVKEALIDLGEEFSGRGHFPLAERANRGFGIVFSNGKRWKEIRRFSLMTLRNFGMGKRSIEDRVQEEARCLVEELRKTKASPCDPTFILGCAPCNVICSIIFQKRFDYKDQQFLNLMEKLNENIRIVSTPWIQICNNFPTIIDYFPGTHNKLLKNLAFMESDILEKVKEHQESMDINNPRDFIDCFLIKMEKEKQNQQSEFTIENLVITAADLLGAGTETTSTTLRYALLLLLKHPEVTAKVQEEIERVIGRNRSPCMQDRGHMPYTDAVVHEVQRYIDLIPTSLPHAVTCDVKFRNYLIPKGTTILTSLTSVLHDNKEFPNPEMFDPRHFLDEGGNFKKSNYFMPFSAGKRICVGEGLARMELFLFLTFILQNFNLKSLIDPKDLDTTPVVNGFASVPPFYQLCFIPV
Sequence of Cytochrome P450 3A4 (P08684 whole entry): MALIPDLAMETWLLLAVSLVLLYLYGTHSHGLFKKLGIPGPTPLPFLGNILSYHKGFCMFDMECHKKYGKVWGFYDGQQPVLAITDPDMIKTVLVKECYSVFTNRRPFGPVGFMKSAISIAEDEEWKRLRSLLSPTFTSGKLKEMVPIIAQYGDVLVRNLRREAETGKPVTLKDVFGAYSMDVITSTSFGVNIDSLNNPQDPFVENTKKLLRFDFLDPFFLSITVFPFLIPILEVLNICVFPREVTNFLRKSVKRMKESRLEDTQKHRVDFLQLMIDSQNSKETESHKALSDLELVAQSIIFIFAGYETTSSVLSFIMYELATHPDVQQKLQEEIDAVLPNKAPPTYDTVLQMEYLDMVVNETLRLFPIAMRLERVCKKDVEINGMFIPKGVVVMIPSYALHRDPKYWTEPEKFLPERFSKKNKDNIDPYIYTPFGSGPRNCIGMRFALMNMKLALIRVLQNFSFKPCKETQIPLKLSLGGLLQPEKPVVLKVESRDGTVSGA
Sequence of Cytochrome P450 2C9 (P11712 whole entry): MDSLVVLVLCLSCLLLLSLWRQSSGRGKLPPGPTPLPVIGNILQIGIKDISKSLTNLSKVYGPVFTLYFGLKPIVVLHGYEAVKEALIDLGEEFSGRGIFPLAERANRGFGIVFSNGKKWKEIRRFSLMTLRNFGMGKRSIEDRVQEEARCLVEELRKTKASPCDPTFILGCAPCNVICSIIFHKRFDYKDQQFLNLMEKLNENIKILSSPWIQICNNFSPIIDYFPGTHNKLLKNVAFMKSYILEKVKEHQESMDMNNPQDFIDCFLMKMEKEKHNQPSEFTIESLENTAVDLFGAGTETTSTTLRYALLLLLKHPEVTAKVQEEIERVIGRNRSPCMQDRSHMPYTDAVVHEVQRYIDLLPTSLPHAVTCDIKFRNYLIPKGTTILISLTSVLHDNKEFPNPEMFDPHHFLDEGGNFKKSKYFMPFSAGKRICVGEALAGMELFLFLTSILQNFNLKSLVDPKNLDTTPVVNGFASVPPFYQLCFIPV

pKi [1] | pKi [2] | pIC50 (Eosinophil [3]) | Compound | other results
5.32 | 6.82 | 5.99 | O=C(O)COc1ccc(Cl)cc1C1CCCC1 | –
< 5.00 | < 5.00 | – | CS(=O)(=O)NC(=O)COc1ccc(Cl)cc1C1CCCCC1 | –
< 5.00 | 6.51 | – | O=C(O)COc1ccccc1C1CCCCC1 | –
5.92 | 7.05 | 6.35 | CC1(c2cc(Cl)ccc2OCC(=O)O)CCCCC1 | –
5.19 | 7.00 | – | O=C(O)COc1ccc(-c2ccc(F)cc2)cc1C1CCCCC1 | –
5.12 | 6.81 | 7.03 | O=C(O)COc1ccc(Cl)cc1C1CCCCC1 | pKi [4]: 5.52; pKi (Thromboxane A2 receptor): < 5.00
5.73 | 7.23 | 6.61 | O=C(O)COc1ccc(Cl)cc1C1CCCCCC1 | microsomal CLint [5]: 109 µL/min/mg; Papp A→B [6]: 8.4 ×10⁻⁶ cm/s; pIC50 (Cytochrome P450 3A4): < 5.00; half-life [7]: 1.18 h; Cmax [8]: 4.7 µM; Activity (Eosinophil [9]): inactive; pIC50 (Cytochrome P450 2C19): < 5.00; Papp B→A [10]: 21.4 ×10⁻⁶ cm/s; clearance [11]: 7.3 mL/min/kg; pIC50 (Cytochrome P450 2D6): < 5.00; Vd [12]: 0.52 L/kg; bioavailability [13]: 58%; pIC50 (Cytochrome P450 1A2): < 5.00; microsomal CLint [14]: 205 µL/min/mg; pIC50 (Cytochrome P450 2C9): < 5.00; AUC [15]: 11.6 µM·h
< 5.00 | 6.10 | – | O=C(O)CCOc1ccc(Cl)cc1C1CCCCC1 | –
< 5.00 | 6.11 | – | COc1ccc(OCC(=O)O)c(C2CCCCC2)c1 | –
< 5.00 | 6.35 | – | O=C(O)COc1ccc(F)cc1C1CCCCC1 | –
< 5.00 | 6.45 | – | Cc1ccc(OCC(=O)O)c(C2CCCCC2)c1 | –
< 5.00 | 5.70 | – | O=C(O)CCCOc1ccc(Cl)cc1C1CCCCC1 | –
< 5.00 | < 5.00 | – | OCCOc1ccc(Cl)cc1C1CCCCC1 | –
5.23 | 7.08 | 6.35 | O=C(O)COc1ccc(Br)cc1C1CCCCC1 | –
5.05 | 5.48 | – | COC(=O)COc1ccc(Cl)cc1C1CCCCC1 | –
< 5.00 | 7.70 | 6.76 | O=C(O)COc1ccc(C(F)(F)F)cc1C1CCCCC1 | –
< 5.00 | 6.64 | 7.28 | N#Cc1ccc(OCC(=O)O)c(C2CCCCC2)c1 | –
< 5.00 | – | – | C[C@@H](Oc1ccc(Cl)cc1C1CCCCC1)C(=O)O | –
< 5.00 | < 5.00 | – | Clc1ccc(OCc2nnn[nH]2)c(C2CCCCC2)c1 | –
5.35 | – | – | C[C@H](Oc1ccc(Cl)cc1C1CCCCC1)C(=O)O | –
5.32 | 5.29 | – | C=CCc1cc(Cl)ccc1OCC(=O)O | –

Compound | pKi [1] | pKi [2] | pIC50 (Eosinophil [3]) | other results
Cc1cc(Cl)ccc1OCC(=O)O [METAXON] | < 5.00 | < 5.00 | – | –
